Test results taken from patent EP2982368A1, “Small molecule compounds displacing focal adhesion core components” (Universität Konstanz, priority 2014, dated 2016).
Entries after “also recorded” stand apart in the source; their conditions may differ.

Assays:
focal adhesion proteins = assay: Localization of focal adhesion proteins (fluorescent fusion proteins) in presence of Mb31; assay type: cell-based, Mouse; details: 10 µM Mb31, 30 min; value is the protein
Experimental: In order to investigate the kinetics of FAK displacement at focal adhesions a time series was performed. GFP-FAK MEFs were treated with 20 µM of Mb31 or Mb36 and fixed after different time points. […] Mb36 kinetic was slightly slower with FAK delocalization after 20 min. In addition, GFP-FAK MEFs were treated with increasing concentrations of Mb31 or Mb36 to determine the minimum concentration required to interfere with FAK localization. Untreated or solvent (DMSO) treated cells show the expected localization of FAK at focal adhesions. […] Already 2 µM of Mb31 were sufficient to induce FAK displacement. […] Due to the faster kinetic and lower IC50 compared to Mb36 further studies were mainly performed using Mb31. […] In contrast, vinculin localization and the focal adhesion localization of talin, α-actinin, and zyxin is not disturbed (Figure 5 and Table 1).
Mouse embryonic fibroblasts expressing the indicated proteins as fluorescent fusion proteins were incubated with 10 µM Mb31 or solvent alone for 30 min. Afterwards, the cells were fixed and the localization of the focal adhesion proteins was analyzed microscopically.

FAK = assay: Immunoblot of FAK and paxillin protein level and FAK Tyr397 phosphorylation; assay type: cell-based, mouse; details: serum-starved GFP-FAK MEFs, increasing concentrations, 30 min
Experimental: (§1) Image J was used to automatically quantify FAK-containing focal adhesions due to local maxima of fluorescence intensity in the GFP-channel (5 to 70 pixel). The number of cells was automatically counted in the Hoechst channel. To test reproducibility of the system 40 control wells were quantified wherein four positions for each well were imaged. […] GFP-FAK mouse embryonic fibroblasts were seeded on fibronectin and incubated for 1 h with the indicated concentrations of the small compounds, respectively. […] GFP-FAK mouse embryonic fibroblasts were seeded on fibronectin and serum-starved overnight. The indicated concentrations of Mb31 were applied for 30 min. Cells were lysed and analyzed for paxillin and FAK protein level as well as FAK Tyr397 phosphorylation. […] The purified kinase domain of FAK was incubated with increasing amounts of Mb31 for 1 h at 30°C together with poly-Glu-Tyr as a FAK substrate. […] Cell viability was assessed by MTT assay. […] Migration was recorded from cells that were cultured without serum (A), with serum (B) or with serum in the presence of 3 µM Mb31 (C). […] Mouse embryonic fibroblasts (MEFs) were transfected with talin-mCherry and talin dynamics analyzed in focal adhesions using fluorescence recovery after photobleaching (FRAP). […] (C) Wound closure was microscopically analyzed and evaluated using ImageJ software. […]

[1] = tested on: GFP-FAK mouse embryonic fibroblasts; assay: MTT assay (cell viability); assay type: cell-based; details: 5 h compound exposure
Experimental: as §1

[2] = tested on: MDA-MB-231 breast cancer cells; assay: In vitro wound healing assay; assay type: cell-based, human; details: 3 µM, 25 h, serum-containing growth medium
Experimental: Image J was used to automatically quantify FAK-containing focal adhesions due to local maxima of fluorescence intensity in the GFP-channel (5 to 70 pixel). The number of cells was automatically counted in the Hoechst channel. To test reproducibility of the system 40 control wells were quantified wherein four positions for each well were imaged. […] GFP-FAK mouse embryonic fibroblasts were seeded on fibronectin and incubated for 1 h with the indicated concentrations of the small compounds, respectively. […] GFP-FAK mouse embryonic fibroblasts were seeded on fibronectin and serum-starved overnight. The indicated concentrations of Mb31 were applied for 30 min. Cells were lysed and analyzed for paxillin and FAK protein level as well as FAK Tyr397 phosphorylation. […] The purified kinase domain of FAK was incubated with increasing amounts of Mb31 for 1 h at 30°C together with poly-Glu-Tyr as a FAK substrate. […] Serum-starved GFP-FAK mouse embryonic fibroblasts were stimulated with normal growth medium and incubated for 5 h with the indicated concentrations of the small molecule compounds, respectively. Cell viability was assessed by MTT assay. […] GFP-FAK MEFs were seeded on fibronectin and serum-starved overnight. Migration was stimulated by replacing the medium with normal growth medium. Migration of single cells was tracked for 8 h in 30 min intervals. Migration was recorded from cells that were cultured without serum (A), with serum (B) or with serum in the presence of 3 µM Mb31 (C). […] (A) GFP-FAK MEFs were seeded and serum-starved as in Figure 10. Cell migration was stimulated with normal growth medium and single cells were tracked for 5 h. (B) Mb31 was added and the same cells were tracked for additional 5 h. (C) Mean velocities of differently treated cells were plotted over time. […] NIH-v-Src fibroblasts were seeded on 2 µg/ml FN in DMEM/0.5%BSA and stimulated with 10 ng/ml EGF or kept unstimulated. […] Mouse embryonic fibroblasts (MEFs) were transfected with talin-mCherry and talin dynamics analyzed in focal adhesions using fluorescence recovery after photobleaching (FRAP). Cells were left untreated (A) or treated with 10 µM of Mb31 (B). In untreated cells, the mCherry intensity recovered, indicating replacement of bleached by non-bleached talin and therefore turnover of talin at focal adhesions. […] (C) Wound closure was microscopically analyzed and evaluated using ImageJ software.
To determine if the migration of transformed cells can be blocked by FLocker1 and related compounds, human breast carcinoma cells (MDA-MB-231) were used in in vitro wound healing assays. […] The ability of the cells to migrate and close the wound space was monitored by microscopy and quantified (Figure 18B and C).

focal adhesions = assay: Focal adhesion dynamics by TIRF microscopy (mKate-vinculin); assay type: cell-based, mouse; details: 5 µM, 40 minutes
talin = assay: Talin-mCherry fluorescence recovery after photobleaching (FRAP); assay type: cell-based, mouse; details: 10 µM
Experimental: as §1

| Compound | Displaced from focal adhesions (focal adhesion proteins) | No effect on localization (focal adhesion proteins) | Y397 phosphorylation of FAK (FAK) | degradation of FAK and paxillin (protein levels) (FAK) | cell viability / toxicity ([1]; listed as Mb31) | migration of cancer cells / wound closure [2] | nascent adhesion formation and mobility of mature adhesions (focal adhesions) | talin-associated fluorescence recovery at bleached focal adhesions (talin) | cell viability / toxicity [1] |
| --- | --- | --- | --- | --- | --- | --- | --- | --- | --- |
| O=[N+]([O-])C=Cc1cc(Br)cs1 [FootLocker 1, 4-bromo-2-(2-nitrovinyl)thiophene] | Focal adhesion kinase (FAK) and Paxillin and Grb2 and CRKII | Talin; also recorded: α-actinin; also recorded: Vinculin; also recorded: Zyxin | not influenced | Neither for FAK nor for paxillin was any degradation observed | do not impair cell viability; also recorded: minor toxicity | retarded the migration of the cancer cells | nascent adhesion formation was absent and mature adhesions were immobile | did not recover | – |
| Nc1ccc(SC(C[N+](=O)[O-])c2ccc(Cl)cc2)cc1 (stereo not drawn) [FootLocker 2, 4-{[1-(4-chlorophenyl)-2-nitroethyl]thio}aniline] | – | – | – | – | – | – | – | – | do not impair cell viability |
